Where two headings read alike, the source gives them in different places. Blank lines part the entries; values can stand above or below the compound they belong to.
Experiments:
[1] = target: T1, GCB (Homo sapiens, UniProt P04062); assay: SDS-PAGE of GCB with non-pH-adjusted isofagomine; assay type: physicochemical; conditions: non-pH-adjusted isofagomine added to GCB
T1 sequence (P04062 40-536): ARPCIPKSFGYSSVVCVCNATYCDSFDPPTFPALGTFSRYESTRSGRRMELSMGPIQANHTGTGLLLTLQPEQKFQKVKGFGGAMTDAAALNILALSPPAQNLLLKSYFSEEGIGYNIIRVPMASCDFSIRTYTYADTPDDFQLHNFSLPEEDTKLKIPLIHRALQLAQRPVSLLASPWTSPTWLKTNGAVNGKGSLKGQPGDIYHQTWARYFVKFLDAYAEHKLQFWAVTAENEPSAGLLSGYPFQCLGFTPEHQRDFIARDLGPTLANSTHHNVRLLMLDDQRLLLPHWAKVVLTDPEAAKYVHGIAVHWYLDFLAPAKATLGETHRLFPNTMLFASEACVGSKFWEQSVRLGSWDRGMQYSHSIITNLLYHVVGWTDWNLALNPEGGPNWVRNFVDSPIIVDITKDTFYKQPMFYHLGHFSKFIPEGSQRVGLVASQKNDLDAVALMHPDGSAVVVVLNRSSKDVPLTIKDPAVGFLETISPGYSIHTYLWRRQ
Method: (§1) Samples were denatured at 37° C. for 15 minutes. SDS-PAGE was run on an 8-16% Novex™ Tris-glycine pre-cast gel. 50 mM dithiothretiol was used as the reducing agent.

[2] = target: T1, GCB; assay: SDS-PAGE of GCB with pH-adjusted isofagomine; assay type: physicochemical; conditions: isofagomine pH adjusted to 6.0, GCB from 100 mg/ml, Day 0 and Day 3
Method: as §1
The results are shown in FIG. 4A for Day 0 and in FIG. 4B for Day 3.

[3] = target: T2, VPRIV (a form of GCB) in human serum (Homo sapiens, UniProt P04062); assay: VPRIV activity in human serum at 37° C. with IFG; assay type: in vitro ADME; conditions: 10 nM VPRIV, human serum 37° C.; for VPRIV activity remaining: 60 minutes
T2 construct: Velaglucerase is secreted as a monomeric glycoprotein of approximately 63 kDa; Velaglucerase is composed of 497 amino acids; made in house
T2 sequence (P04062 40-536): T1 sequence (P04062 40-536)
Method: Enzyme activity was measured using the cleavage of the 4-methylumbelliferone b-D-glucopyranoside substrate.

[4] = target: T3, GCB (immobilized velaglucerase alfa) (Homo sapiens, UniProt P04062)
T3 sequence (P04062 40-536): T1 sequence (P04062 40-536)
Method: All SPR experiments were performed on a Biacore S-200 by a single-cycle kinetics method. For experiments at pH 7.4, 2 mg/ml GCB was diluted into the GE acetate pH 5.0 buffer to the final concentration of 100 μg/ml. The immobilization running buffer was 10 mM HEPES, 5 mM EDTA, 0.01% P-20, pH 7.4. This buffer was used directly in the binding assay subsequently.
For experiments at pH 5.0, 2 mg/ml GCB was diluted into the GE acetate pH 5.0 buffer to the final concentration of 100 μg/ml. The immobilization running buffer was 20 mM sodium phosphate, 2.7 mM potassium chloride, 137 mM sodium chloride, 5 mM tartrate, 0.01% P-20, pH 5.0. […] GCB was immobilized on a CM5 chip using a normal […] coupling procedure. The target immobilization level was 4000 RU.
For Biacore experiments at pH 7.4, the concentration range was 0.39-100 nM. The total was 9 points with 2-fold serial dilution. For Biacore experiments at pH 5.0, the concentration range was 0.39-100 nM. The total was 9 points with 2-fold serial dilution.
The conditions for the binding assay were as follows: 30 μl/min flow rate, 120 s association time, 600 s dissociation time, and 3 M magnesium chloride as the regeneration reagent.
For each of the pH 5.0 and pH 7.4 studies, two runs were performed. Black lines represent actual data and red lines represent model fitting.

[5] = pH of IFGT dissolved in water; assay type: physicochemical; conditions: 103 mg dissolved in 5 ml of water
Method: When IFGT is dissolved in water, an acidic solution results. […] The pH was adjusted to 6.0 by adding 15 μl 10 M sodium hydroxide to the solution.

[6] = Serum exposure of GCB after SC velaglucerase alfa with IFG (ECL ELISA, 4MU-GPS activity assay); conditions: 0.07 mg/kg IFGT added to 4 mg/kg GCB
Method: Test articles for dosing were prepared as frozen formulations to the animal facility prior to dosing. Test articles were thawed approximately 1 to 3 hours prior to dosing.

[7] = system: endogenous serum GCB; conditions: SC dose of 2.5 mg/kg

SMILES: OC[C@H]1CNC[C@@H](O)[C@@H]1O [IFG, isofagomine]
fragments of GCB on SDS-PAGE ([1]; 4° C.): yielded fragments of GCB
fragments of GCB on SDS-PAGE ([1]; −80° C.): not
smaller bands (<50 kDa) on SDS-PAGE [2]: No smaller bands having sizes of less than 50 kDa were observed
VPRIV activity remaining ([3]; 1 nM IFG): around 40%
VPRIV activity remaining ([3]; 10 nM IFG): around 40%
loss of VPRIV activity ([3]; 30 nM IFG (3× molar ratio) and higher): prevented most of the loss of activity
ka ([4]; First Run at pH 5.0): 12500 M⁻¹ s⁻¹
kd ([4]; First Run at pH 5.0): 0.00314 s⁻¹
ka ([4]; First Run at pH 7.4): 242000 M⁻¹ s⁻¹
kd ([4]; First Run at pH 7.4): 0.002274 s⁻¹
ka ([4]; Second Run at pH 5.0): 9883 M⁻¹ s⁻¹
kd ([4]; Second Run at pH 5.0): 0.001954 s⁻¹
ka ([4]; Second Run at pH 7.4): 280000 M⁻¹ s⁻¹
kd ([4]; Second Run at pH 7.4): 0.001785 s⁻¹

pH of the solution [5]: 3.25
overall enzyme activity of GCB in serum ([6]; 4MU-GPS substrate): substantially increased
amount of GCB in serum ([6]; ECL ELISA): substantially increased
SMILES: O=C(O)[C@H](O)[C@@H](O)C(=O)O.OCC1CNCC(O)[C@@H]1O [Isofagomine tartrate, isofagomine tartrate]
GCB activity in the serum [7]: increase GCB activity in the serum above the upper limit of normal

From patent US20200316178A1 (SHIRE HUMAN GENETIC THERAPIES, INC., priority 2017, published 2020)
